Laboratory results published in patent publication US9247759B2, “Identification of human T2R receptors that respond to bitter compounds that elicit the bitter taste in compositions, and the use thereof in assays to identify compounds that inhibit (block) bitter taste in compositions and use thereof” (SENOMYX, INC., priority 2007, dated 2016).
pIC50: −log10 of the molar value.

Legend:
[1] = target: hT2R13 (Homo sapiens (Human), UniProt Q9NYV9); assay: hT2R panel inhibition, transient HEK293 G16g44, agonist Oxyphenonium 1 mM; type: cell-based; conditions: HEK293, compound at 25 μM; receptor activated to EC80 with the corresponding agonist; read-out: screening result against bitter receptor 13
Chain of hT2R13 (Q9NYV9 whole entry): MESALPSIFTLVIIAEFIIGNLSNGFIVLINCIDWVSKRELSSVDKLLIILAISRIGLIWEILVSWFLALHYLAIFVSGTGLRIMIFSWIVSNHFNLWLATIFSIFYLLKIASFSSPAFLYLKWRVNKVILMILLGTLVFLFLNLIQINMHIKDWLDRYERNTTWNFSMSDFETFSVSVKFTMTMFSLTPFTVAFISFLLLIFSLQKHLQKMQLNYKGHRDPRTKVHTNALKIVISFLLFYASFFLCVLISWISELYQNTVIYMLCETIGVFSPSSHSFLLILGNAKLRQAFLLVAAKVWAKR
Summary of the method: (§1)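 Receptor activity was measured in functional assays after single-receptor transient transfection; bitter agonists were used at their EC80 levels. A decrease in that activity when the test compound was added was taken as inhibition.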

[2] = target: hT2R10 (Homo sapiens (Human), UniProt Q9NYW0); assay: hT2R panel inhibition, transient HEK293 G16g44, agonist Strychnine 50 μM; type: cell-based; conditions: receptor activated to EC80 with the corresponding agonist; for inhibition at 25 µM: HEK293, read-out: screening result against bitter receptor 10, compound at 25 μM
Chain of hT2R10 (Q9NYW0 whole entry): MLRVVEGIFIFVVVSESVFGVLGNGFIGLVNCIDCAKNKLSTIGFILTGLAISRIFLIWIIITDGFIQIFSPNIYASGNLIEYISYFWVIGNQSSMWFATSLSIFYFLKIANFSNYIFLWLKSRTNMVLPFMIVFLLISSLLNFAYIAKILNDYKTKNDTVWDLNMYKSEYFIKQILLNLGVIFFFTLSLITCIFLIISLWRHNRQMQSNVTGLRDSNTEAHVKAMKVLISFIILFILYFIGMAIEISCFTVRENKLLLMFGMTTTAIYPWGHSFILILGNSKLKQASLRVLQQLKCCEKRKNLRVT

[3] = tested on: hT2R65; assay: hT2R panel inhibition, transient HEK293 G16g44, agonist Oleuropein 1 mM; type: cell-based, human; conditions: compound at 25 μM; receptor activated to EC80 with the corresponding agonist
Summary of the method: as §1

[4] = target: hT2R51 (Homo sapiens (Human), UniProt P59533); assay: hT2R panel inhibition, transient HEK293 G16g44, agonist Prop 2.5 μM; type: cell-based; conditions: receptor activated to EC80 with the corresponding agonist; for inhibition at 25 µM: HEK293, compound at 25 μM, read-out: screening result against bitter receptor 51
Chain of hT2R51 (P59533 whole entry): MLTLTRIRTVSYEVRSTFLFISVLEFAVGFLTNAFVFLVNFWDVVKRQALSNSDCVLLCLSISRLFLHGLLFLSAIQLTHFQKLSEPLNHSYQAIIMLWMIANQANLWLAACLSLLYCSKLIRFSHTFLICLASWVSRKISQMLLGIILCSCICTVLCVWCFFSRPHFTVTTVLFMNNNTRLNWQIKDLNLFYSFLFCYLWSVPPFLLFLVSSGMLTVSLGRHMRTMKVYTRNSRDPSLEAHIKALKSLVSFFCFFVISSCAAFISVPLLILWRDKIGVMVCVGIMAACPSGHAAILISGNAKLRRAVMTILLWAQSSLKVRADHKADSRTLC
Summary of the method: as §1

[5] = target: hT2R71 (Homo sapiens (Human), UniProt P59536); assay: hT2R panel inhibition, transient HEK293 G16g44, agonist Picric Acid 10 μM; type: cell-based; conditions: receptor activated to EC80 with the corresponding agonist; for inhibition at 25 µM: HEK293, compound at 25 μM, read-out: screening result against bitter receptor 71
Chain of hT2R71 (P59536 whole entry): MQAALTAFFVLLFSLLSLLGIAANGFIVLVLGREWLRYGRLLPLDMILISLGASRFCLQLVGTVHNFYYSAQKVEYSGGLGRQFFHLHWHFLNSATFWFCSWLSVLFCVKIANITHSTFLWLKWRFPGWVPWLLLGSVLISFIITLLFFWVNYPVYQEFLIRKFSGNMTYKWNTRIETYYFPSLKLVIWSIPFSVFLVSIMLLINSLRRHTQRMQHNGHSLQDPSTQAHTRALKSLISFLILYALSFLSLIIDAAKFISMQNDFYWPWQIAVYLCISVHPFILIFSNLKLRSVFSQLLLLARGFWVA
Summary of the method: as §1

[6] = target: hT2R75 (Homo sapiens (Human), UniProt P59540); assay: hT2R panel inhibition, transient HEK293 G16g44, agonist Strychnine 1 μM; type: cell-based; conditions: receptor activated to EC80 with the corresponding agonist; for inhibition at 25 µM: HEK293, read-out: screening result against bitter receptor 75, compound at 25 μM
Chain of hT2R75 (P59540 whole entry): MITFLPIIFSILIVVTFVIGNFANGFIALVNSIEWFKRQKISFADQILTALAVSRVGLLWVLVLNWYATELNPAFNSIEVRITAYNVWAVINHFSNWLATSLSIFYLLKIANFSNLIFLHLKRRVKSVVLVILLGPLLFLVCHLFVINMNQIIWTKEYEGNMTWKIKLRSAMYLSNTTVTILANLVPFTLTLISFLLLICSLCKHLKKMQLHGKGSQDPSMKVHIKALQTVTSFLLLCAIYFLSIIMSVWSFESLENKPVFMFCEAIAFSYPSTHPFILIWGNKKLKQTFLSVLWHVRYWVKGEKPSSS

[7] = target: hT2R16 (Homo sapiens (Human), UniProt Q9NYV7); assay: hT2R panel inhibition, transient HEK293 G16g44, agonist Salicin 1 mM; type: cell-based; conditions: HEK293, compound at 25 μM; receptor activated to EC80 with the corresponding agonist; read-out: screening result against bitter receptor 16
Chain of hT2R16 (Q9NYV7 whole entry): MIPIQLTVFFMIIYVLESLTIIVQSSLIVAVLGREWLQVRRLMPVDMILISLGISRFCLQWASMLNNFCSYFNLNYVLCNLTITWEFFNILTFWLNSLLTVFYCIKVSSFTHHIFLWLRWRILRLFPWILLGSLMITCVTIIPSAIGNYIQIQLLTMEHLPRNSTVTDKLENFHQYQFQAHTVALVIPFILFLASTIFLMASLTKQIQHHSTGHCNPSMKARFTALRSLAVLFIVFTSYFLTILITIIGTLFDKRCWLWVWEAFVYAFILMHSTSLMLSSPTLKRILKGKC
Summary of the method: as §1

[8] = target: hT2R9 (Homo sapiens (Human), UniProt Q9NYW1); assay: hT2R panel inhibition, transient HEK293 G16g44, agonist Ofloxacin 1 mM; type: cell-based; conditions: HEK293, compound at 25 μM; receptor activated to EC80 with the corresponding agonist; read-out: screening result against bitter receptor 9
Chain of hT2R9 (Q9NYW1 whole entry): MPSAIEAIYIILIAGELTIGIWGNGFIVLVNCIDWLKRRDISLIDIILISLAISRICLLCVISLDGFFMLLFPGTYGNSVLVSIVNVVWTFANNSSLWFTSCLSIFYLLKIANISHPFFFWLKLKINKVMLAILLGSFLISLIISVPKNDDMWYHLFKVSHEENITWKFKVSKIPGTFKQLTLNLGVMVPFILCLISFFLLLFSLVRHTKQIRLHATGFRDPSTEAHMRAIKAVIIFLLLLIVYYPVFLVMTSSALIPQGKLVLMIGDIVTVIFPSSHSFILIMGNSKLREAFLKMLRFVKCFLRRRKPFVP
Summary of the method: as §1

[9] = tested on: hT2R44; assay: hT2R panel inhibition, transient HEK293 G16g44, agonist Denatonium 0.5 μM; type: cell-based, human; conditions: compound at 25 μM; receptor activated to EC80 with the corresponding agonist
Summary of the method: as §1

[10] = target: hT2R64 (Homo sapiens (Human), UniProt P59538); assay: hT2R panel inhibition, transient HEK293 G16g44, agonist Aristolochic Acid 1 μM; type: cell-based; conditions: receptor activated to EC80 with the corresponding agonist; for inhibition at 25 µM: HEK293, compound at 25 μM, read-out: screening result against bitter receptor 64
Chain of hT2R64 (P59538 whole entry): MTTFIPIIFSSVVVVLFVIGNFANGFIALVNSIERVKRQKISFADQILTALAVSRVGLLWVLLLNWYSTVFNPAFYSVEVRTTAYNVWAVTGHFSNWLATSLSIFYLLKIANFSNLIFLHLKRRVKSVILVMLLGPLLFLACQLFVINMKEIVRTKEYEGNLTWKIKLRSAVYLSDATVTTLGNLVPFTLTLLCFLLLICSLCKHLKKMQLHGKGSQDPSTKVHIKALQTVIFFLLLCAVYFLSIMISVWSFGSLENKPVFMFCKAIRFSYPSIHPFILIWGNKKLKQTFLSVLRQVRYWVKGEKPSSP
Summary of the method: as §1

[11] = target: hT2R61 (Homo sapiens (Human), UniProt P59537); assay: hT2R panel inhibition, transient HEK293 G16g44, agonist Aristolochic Acid 25 nM; type: cell-based; conditions: receptor activated to EC80 with the corresponding agonist; for inhibition at 25 µM: HEK293, compound at 25 μM, read-out: screening result against bitter receptor 61
Chain of hT2R61 (P59537 whole entry): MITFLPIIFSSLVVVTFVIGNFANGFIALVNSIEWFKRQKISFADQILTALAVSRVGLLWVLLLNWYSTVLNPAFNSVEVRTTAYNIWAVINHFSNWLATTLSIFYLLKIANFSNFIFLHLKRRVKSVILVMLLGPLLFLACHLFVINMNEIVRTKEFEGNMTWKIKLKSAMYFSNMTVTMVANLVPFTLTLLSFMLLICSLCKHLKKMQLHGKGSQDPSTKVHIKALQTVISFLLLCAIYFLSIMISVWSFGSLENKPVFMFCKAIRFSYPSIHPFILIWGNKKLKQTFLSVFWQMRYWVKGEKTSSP
Summary of the method: as §1

[12] = target: T1, hT2R14 (Homo sapiens (Human), UniProt Q9NYV8); assay: hT2R14 antagonist high-throughput FLIPR assay, stable cell line with G16g44, agonist aristolochic acid; type: cell-based; conditions: read-out: IC50 on hT2R14 bitter receptor
T1 sequence (Q9NYV8 whole entry): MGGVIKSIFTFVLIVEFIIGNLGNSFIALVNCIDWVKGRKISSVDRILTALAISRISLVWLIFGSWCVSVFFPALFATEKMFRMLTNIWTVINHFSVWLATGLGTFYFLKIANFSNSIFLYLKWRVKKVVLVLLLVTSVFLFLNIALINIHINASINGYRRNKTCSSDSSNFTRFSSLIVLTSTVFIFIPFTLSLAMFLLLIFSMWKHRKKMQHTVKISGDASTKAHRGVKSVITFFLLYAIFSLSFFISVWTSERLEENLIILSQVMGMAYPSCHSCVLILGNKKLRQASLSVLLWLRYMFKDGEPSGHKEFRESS
Summary of the method: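 HEK293 cells stably expressing hT2R14 with chimeric G16g44 were stimulated with aristolochic acid (3 μM), giving 70-80% of maximal receptor activity. Test compounds were added together with the agonist, and antagonism was read as fluorescent calcium signal on FLIPR.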

[13] = tested on: hT2R63; assay: hT2R panel inhibition, transient HEK293 G16g44, agonist Caffeine 1 mM or Andrographolide 100 μM; type: cell-based, human; conditions: compound at 25 μM; receptor activated to EC80 with the corresponding agonist
Summary of the method: as §1

[14] = tested on: hT2R54; assay: hT2R panel inhibition, transient HEK293 G16g44, agonist Ranitidine 5 mM; type: cell-based, human; conditions: compound at 25 μM; receptor activated to EC80 with the corresponding agonist
Summary of the method: as §1

[15] = target: hT2R3 (Homo sapiens (Human), UniProt Q9NYW6); assay: hT2R panel inhibition, transient HEK293 G16g44, agonist Chloroquine pH6.5 50 μM; type: cell-based; conditions: receptor activated to EC80 with the corresponding agonist; for inhibition at 25 µM: HEK293, compound at 25 μM, read-out: screening result against bitter receptor 3
Chain of hT2R3 (Q9NYW6 whole entry): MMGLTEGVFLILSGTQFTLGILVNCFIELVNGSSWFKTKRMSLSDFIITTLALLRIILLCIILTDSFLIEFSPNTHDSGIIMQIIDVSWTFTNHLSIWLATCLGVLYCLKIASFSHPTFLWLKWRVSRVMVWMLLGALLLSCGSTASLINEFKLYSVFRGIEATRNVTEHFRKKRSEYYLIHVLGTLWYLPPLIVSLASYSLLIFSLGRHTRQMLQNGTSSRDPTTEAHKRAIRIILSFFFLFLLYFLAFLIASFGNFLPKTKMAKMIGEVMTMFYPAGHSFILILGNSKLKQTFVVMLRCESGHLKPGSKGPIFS
Summary of the method: as §1

[16] = target: T1, hT2R14; assay: hT2R panel inhibition, transient HEK293 G16g44, agonist Aristolochic Acid 2 μM; type: cell-based; conditions: receptor activated to EC80 with the corresponding agonist; for inhibition at 25 µM: HEK293, compound at 25 μM, read-out: screening result against bitter receptor 14
Summary of the method: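 Each hT2R was transiently transfected into HEK293 cells stably expressing G16g44 and assayed functionally for inhibition of agonist response. Agonists were applied at EC80: andrographolide at 0.5 mM for hT2R8 and aristolochic acid at 2 μM for hT2R14.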

[17] = tested on: hT2R55; assay: hT2R panel inhibition, transient HEK293 G16g44, agonist Cinchonine 150 μM; type: cell-based, human; conditions: compound at 25 μM; receptor activated to EC80 with the corresponding agonist
Summary of the method: as §1

[18] = target: hT2R7 (Homo sapiens (Human), UniProt Q9NYW3); assay: hT2R panel inhibition, transient HEK293 G16g44, agonist Chloroquine pH6.5 10 mM; type: cell-based; conditions: HEK293, compound at 25 μM; receptor activated to EC80 with the corresponding agonist; read-out: screening result against bitter receptor 7
Chain of hT2R7 (Q9NYW3 whole entry): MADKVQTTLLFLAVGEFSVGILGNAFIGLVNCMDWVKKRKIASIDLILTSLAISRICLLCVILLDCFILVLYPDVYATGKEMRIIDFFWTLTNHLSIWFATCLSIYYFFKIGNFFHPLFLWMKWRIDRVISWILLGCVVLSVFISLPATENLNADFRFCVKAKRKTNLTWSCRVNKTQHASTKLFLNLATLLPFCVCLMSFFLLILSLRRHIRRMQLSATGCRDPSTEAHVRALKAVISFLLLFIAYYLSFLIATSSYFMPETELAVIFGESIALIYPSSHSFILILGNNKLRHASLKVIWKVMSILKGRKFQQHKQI
Summary of the method: as §1

[19] = tested on: hT2R67; assay: hT2R panel inhibition, transient HEK293 G16g44, agonist Andrographolide 5 μM; type: cell-based, human; conditions: compound at 25 μM; receptor activated to EC80 with the corresponding agonist
Summary of the method: as §1

[20] = target: hT2R5 (Homo sapiens (Human), UniProt Q9NYW4); assay: hT2R panel inhibition, transient HEK293 G16g44, agonist Picoline 10 mM; type: cell-based; conditions: HEK293, compound at 25 μM; receptor activated to EC80 with the corresponding agonist; read-out: screening result against bitter receptor 5
Chain of hT2R5 (Q9NYW4 whole entry): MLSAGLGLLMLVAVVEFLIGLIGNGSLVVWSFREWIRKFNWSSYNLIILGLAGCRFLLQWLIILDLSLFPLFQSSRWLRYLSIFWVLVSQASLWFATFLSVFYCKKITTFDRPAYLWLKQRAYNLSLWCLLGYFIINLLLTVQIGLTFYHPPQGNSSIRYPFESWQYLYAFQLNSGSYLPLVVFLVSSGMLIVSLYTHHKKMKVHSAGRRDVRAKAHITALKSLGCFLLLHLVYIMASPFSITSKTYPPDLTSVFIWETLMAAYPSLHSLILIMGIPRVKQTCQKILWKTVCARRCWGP
Summary of the method: as §1

[21] = target: hT2R4 (Homo sapiens (Human), UniProt Q9NYW5); assay: hT2R panel inhibition, transient HEK293 G16g44, agonist Chloroquine pH6.5 5 mM; type: cell-based; conditions: HEK293, compound at 25 μM; receptor activated to EC80 with the corresponding agonist; class symbols; read-out: screening result against bitter receptor 4
Chain of hT2R4 (Q9NYW5 whole entry): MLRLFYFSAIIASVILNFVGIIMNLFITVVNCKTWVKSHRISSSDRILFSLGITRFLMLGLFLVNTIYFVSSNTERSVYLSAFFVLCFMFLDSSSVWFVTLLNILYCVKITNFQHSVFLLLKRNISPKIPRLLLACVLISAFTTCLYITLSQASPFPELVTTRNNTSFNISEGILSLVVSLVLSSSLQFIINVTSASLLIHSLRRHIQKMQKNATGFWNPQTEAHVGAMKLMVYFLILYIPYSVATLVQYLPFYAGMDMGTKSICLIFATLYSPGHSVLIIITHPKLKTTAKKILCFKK
Summary of the method: as §1

Compound	inhibition at 25 µM [1]	screening result against bitter receptor 65 [3]	inhibition at 25 µM [7]	inhibition at 25 µM [8]	screening result against bitter receptor 44 [9]	pIC50 [12]	screening result against bitter receptor 63 [13]	screening result against bitter receptor 54 [14]	screening result against bitter receptor 55 [17]	inhibition at 25 µM [18]	screening result against bitter receptor 67 [19]	inhibition at 25 µM [2]	inhibition at 25 µM [4]	inhibition at 25 µM [5]	inhibition at 25 µM [6]	inhibition at 25 µM [20]	inhibition at 25 µM [10]	inhibition at 25 µM [11]	inhibition at 25 µM [15]	inhibition at 25 µM [16]	also measured
COc1ccc(CN(Cc2ccc(F)cc2)S(=O)(=O)c2ccc(C(=O)O)cc2)cc1 [Example 5-10, 4-(N-(4-fluorobenzyl)-N-(4-methoxybenzyl)sulfamoyl)benzoic acid]	40 to 60%	++++ (80% or greater inhibition = ++++)	> 80%	40 to 60%	++ (40% to 60% inhibition = ++)	5.71	++++ (80% or greater inhibition = ++++)	++++ (80% or greater inhibition = ++++)	+++ (60% to 80% inhibition = +++)	40 to 60%	+++ (60% to 80% inhibition = +++)	–	–	–	–	–	–	–	–	–	screening result against bitter receptor 10 ([2]; compound at 25 μM): ++++ (80% or greater inhibition = ++++); screening result against bitter receptor 51 ([4]; compound at 25 μM): ++++ (80% or greater inhibition = ++++); screening result against bitter receptor 71 ([5]; compound at 25 μM): +++ (60% to 80% inhibition = +++); screening result against bitter receptor 75 ([6]; compound at 25 μM): + (20% to 40% inhibition = +); screening result against bitter receptor 64 ([10]; compound at 25 μM): +++ (60% to 80% inhibition = +++); screening result against bitter receptor 61 ([11]; compound at 25 μM): ++++ (80% or greater inhibition = ++++); screening result against bitter receptor 3 ([15]; compound at 25 μM): +++ (60% to 80% inhibition = +++); screening result against bitter receptor 14 ([16]; compound at 25 μM): ++++ (80% or greater inhibition = ++++)
COc1ccc(CN(Cc2cccc(F)c2)S(=O)(=O)c2ccc(C(=O)O)cc2)cc1 [Example 5-12, 4-(N-(3-fluorobenzyl)-N-(4-methoxybenzyl)sulfamoyl)benzoic acid]	20 to 40%	++++ (80% or greater inhibition = ++++)	60 to 80%	40 to 60%	+++ (60% to 80% inhibition = +++)	–	++++ (80% or greater inhibition = ++++)	++++ (80% or greater inhibition = ++++)	++++ (80% or greater inhibition = ++++)	40 to 60%	+++ (60% to 80% inhibition = +++)	> 80%	> 80%	> 80%	20 to 40%	40 to 60%	60 to 80%	> 80%	60 to 80%	> 80%	–
COc1ccc(CN(CC2CCCCC2)S(=O)(=O)c2ccc(C(=O)O)cc2)cc1 [Example 5-23, 4-(N-(cyclohexylmethyl)-N-(4-methoxybenzyl)sulfamoyl)-benzoic acid]	20 to 40%	++++ (80% or greater inhibition = ++++)	60 to 80%	40 to 60%	–	5.46	–	–	++++ (80% or greater inhibition = ++++)	40 to 60%	++ (40% to 60% inhibition = ++)	> 80%	40 to 60%	> 80%	40 to 60%	40 to 60%	60 to 80%	> 80%	60 to 80%	> 80%	inhibition at 25 µM [21]: 40 to 60%
COc1ccc(CN(Cc2cccc(F)c2F)S(=O)(=O)c2ccc(C(=O)O)cc2)cc1 [Example 5-33, 4-(N-(2,3-difluorobenzyl)-N-(4-methoxybenzyl)sulfamoyl)benzoic acid]	20 to 40%	+++ (60% to 80% inhibition = +++)	40 to 60%	20 to 40%	+++ (60% to 80% inhibition = +++)	–	+++ (60% to 80% inhibition = +++)	+++ (60% to 80% inhibition = +++)	++++ (80% or greater inhibition = ++++)	20 to 40%	++ (40% to 60% inhibition = ++)	60 to 80%	40 to 60%	60 to 80%	–	40 to 60%	60 to 80%	> 80%	40 to 60%	> 80%	inhibition at 25 µM [21]: 40 to 60%
COc1ccc(CN(Cc2ccccc2)S(=O)(=O)c2ccc(C(=O)O)cc2)cc1C [Example 5-89, 4-(N-benzyl-N-(4-methoxy-3-methylbenzyl)sulfamoyl)benzoic acid]	20 to 40%	++++ (80% or greater inhibition = ++++)	20 to 40%	20 to 40%	+++ (60% to 80% inhibition = +++)	–	++++ (80% or greater inhibition = ++++)	+ (20% to 40% inhibition = +)	++++ (80% or greater inhibition = ++++)	40 to 60%	+ (20% to 40% inhibition = +)	60 to 80%	> 80%	60 to 80%	20 to 40%	20 to 40%	60 to 80%	> 80%	40 to 60%	> 80%	–
